# Paper PMC9604400, “Synthesis, Anticancer and Antitubercular Properties of New Chalcones and Their Nitrogen-Containing Five-Membered Heterocyclic Hybrids Bearing Sulfonamide Moiety” (International Journal of Molecular Sciences, 2022)
# What was measured:
# [1] = Figure 1, literature compound, cited from earlier work
# α-glucosidase = conditions: Figure 1, literature compound; cited from earlier work
# [2] = system: 60 human cancer cell lines; test: NCI-60 screen (SRB), whole panel; type: cell-based; conditions: Homo sapiens; single dose 10 μM, mean over 60 cell lines; over 100% = cell death; read-out: Mean growth inhibition (GI) percentage
# [3] = system: Mycobacterium bovis BCG (ATCC 35734); test: microbe, parasite or virus in culture; type: cell-based; conditions: Mycobacterium tuberculosis variant bovis BCG, read-out: MIC Against M. bovis BCG
# [4] = system: Mycobacterium tuberculosis H37Rv (ATCC 27294); test: microbe, parasite or virus in culture; type: cell-based; conditions: Mycobacterium tuberculosis; agar dilution SPOTi; read-out: MIC Against M. tuberculosis H37Rv
# [5] = Cytotoxicity on Vero cell line (MTT); type: cell-based, African green monkey; conditions: African green monkey, Vero cells (African green monkey kidney, ATCC CCL-81); MTT, 24 h
# Vero cell line = test: Cytotoxicity on Vero cell line (MTT); type: cell-based, African green monkey; conditions: Vero IC50 / MIC M. tuberculosis H37Rv
# M. tuberculosis H37Rv [6] = test: Checkerboard synergism assay; type: cell-based, Mycobacterium tuberculosis
# Experimental: The synergism assays were carried out in 96-well plates with Middlebrook 7H9 medium supplemented with OADC.
# M. tuberculosis H37Rv [7] = test: Growth curves in liquid medium and re-plating (cidal or static); type: cell-based, Mycobacterium tuberculosis
# [8] = compound in combination with AMK
# [9] = compound in combination with INH
# [10] = compound in combination with LVX
compound,measurement,setting,value
Cc1ccc(S(=O)(=O)Nc2ccc(C(=O)/C=C/c3ccc(Br)cc3)cc2)cc1 [Compound 1],LD50,[1],220 µM
Cc1ccc(S(=O)(=O)Nc2ccc(C(=O)/C=C/c3ccc(O)c(O)c3)cc2)cc1 [Compound 2],IC50,α-glucosidase,400 nM
NS(=O)(=O)c1ccc(N2N=C(C(F)(F)F)CC2c2ccc(F)cc2F)cc1 (stereo not drawn) [Compound 4],ED50,[1]; test not given,7400 nM
"COc1cc(OC)c(S(=O)(=O)NNC(=O)c2ccncc2)cc1C(=O)/C=C/c1ccc2c(c1)OCO2 [Compound 20f, (E)-5-(3-(Benzo[d][1,3]dioxol-5-yl)acryloyl)-N’-isonicotinoyl-2,4-dimethoxybenzenesulfonohydrazide]",inhibition at 10 µM,[2],4.19%
same,MIC,[3],20 µM
same,MIC,[4],9.8 µM
same,IC50 at 24 h,[5],2550 ± 930 nM
same,Selectivity Index (SI) (SI = IC50/MIC),Vero cell line,0.26
same,MIC,"M. tuberculosis H37Rv [6]; Mycobacterium tuberculosis, H37RV, checkerboard, alone",5 µg/mL
same,FICI Index,M. tuberculosis H37Rv [6]; [8],2.00
same,MIC Combination,M. tuberculosis H37Rv [6]; [8],5 µg/mL
same,FICI Index,M. tuberculosis H37Rv [6]; [9],1.00
same,MIC Combination,M. tuberculosis H37Rv [6]; [9],2.5 µg/mL
same,FICI Index,M. tuberculosis H37Rv [6]; [10],1.00
same,MIC Combination,M. tuberculosis H37Rv [6]; [10],2.5 µg/mL
same,MIC Combination,M. tuberculosis H37Rv [6]; compound in combination with RIF,1.25 µg/mL
same,interaction (from FICI),M. tuberculosis H37Rv [6]; in combination with rifampicin,synergism
same,growth of M. tuberculosis H37Rv in liquid medium (optical density),"M. tuberculosis H37Rv [7]; 1×MIC, after 21 days",moderate growth
same,growth of M. tuberculosis H37Rv in liquid medium (optical density),"M. tuberculosis H37Rv [7]; 10×MIC, 21 days, compared with day 0",no significant growth
same,cidal or static effect,"M. tuberculosis H37Rv [7]; re-plating on solid media without compound, up to 10×MIC",bacteriostatic
same,melting point,,150 to 152 °C
